# Values of other authors as cited in patent US20080081070A1, “PHARMACEUTICAL FORMULATION WITH ENHANCED SOLUBILITY FOR THE DELIVERY OF CORTICOSTEROIDS” (priority 2006, published 2008).
# Experiments:
# [1] = test system: Crohn's disease
# [2] = animal studies
# [3] = test system: mild and moderately active Crohn's disease
# [4] = not given; remark: listed apart in the source
# [5] = oral dosing of radiolabeled drug, humans
structure (smiles),measurement,setting,value
CCCC1O[C@@H]2C[C@H]3[C@@H]4CCC5=CC(=O)C=C[C@]5(C)[C@H]4[C@@H](O)C[C@]3(C)[C@]2(C(=O)CO)O1 (stereo partly shown) [budesonide],clinical features of hypercortisolism compared with prednisone,[1]; clinical studies,fewer
same,likelihood of maintaining a normal plasma cortisol level compared with prednisone,[1]; clinical studies,greater likelihood
same,bone mineral density compared with prednisone,[1]; two-year study,decreased less
CCC(=O)O[C@]1(C(=O)O)[C@H](C)C[C@H]2[C@@H]3C[C@H](F)C4=CC(=O)C=C[C@]4(C)[C@@]3(F)[C@@H](O)C[C@@]21C [17-β-carboxylic acid],pharmacologic activity,[2],negligible
"CCC(=O)O[C@]1(C(=O)SCF)[C@H](C)C[C@H]2[C@@H]3C[C@H](F)C4=CC(=O)C=C[C@]4(C)[C@@]3(F)[C@@H](O)C[C@@]21C [Fluticasone propionate, S-fluoromethyl-6-α-9-difluoro-11-β-hydroxy-16-α-methyl-3-oxoandrosta-1,4-diene-17-β-carbothioate, 17-propionate]",excretion of injected radioactivity calculated from whole body data,"[3]; after three weeks oral treatment, before treatment 28 (21%), p less than 0.05",1.4 (0.7%)
same,plasma cortisol values,[3]; three weeks oral treatment,no changes
same,leucocyte scan images,"[3]; three weeks oral treatment, twelve patients",improved (seven patients) or unchanged (five patients)
same,solubility in 95% ethanol,95% ethanol,slightly soluble
same,solubility in dimethyl sulfoxide,dimethyl sulfoxide,freely soluble
same,solubility in dimethyl-formamide,dimethyl-formamide,freely soluble
same,solubility in methanol,methanol,slightly soluble
same,solubility in water,water,0.14 µg/mL
same,total blood clearance,"[4]; average, predominantly through the liver","1,093 mL/min"
same,absorption,[4]; [5],low
same,extraction from plasma,[4]; [5],highly extracted
same,oral bioavailability,[4]; [5],negligible
